Source: patent US20150132328A1 (priority 2011, published 2015)
Where two headings read alike, the source gives them in different places. Marks after values point to notes of the source that are not given here.

Tests used:
LR.4 cells = test system: LR.4 cells
From the text: (§1) The cellular viability that was quantified by the MTT method, indicates the mitochondrial activity.

BMK-16myc cells = test system: BMK-16myc cells
From the text: We used BMK-16myc cells which are baby mouse kidney cells immortalized with genes of 16 protein of the human papilloma virus (HPV) and the myc gene, which grow in mouse, are highly invasive and produce metastases rapidly. One million cells were implanted subcutaneously in the back of each mouse. […] Subsequently, the animals were sacrificed and the tumors under the back skin as well as thymus, spleen, liver and kidney were collected for histopathological examination.
as §1

THP-1 cells = settings: IMMP 10^−10M, no cortisone
[1] = test system: rats with acute hepatitis induced with CCI4;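 also: endpoints determined in blood and liver tissue collected when the rats were sacrificed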
platelets = settings: three dosages
[2] = Acute Hepatitis + IMMP, time of CCI4 24
[3] = Acute Hepatitis + IMMP, time of CCI4 48
[4] = Acute Hepatitis + IMMP, time of CCI4 72

Peptide LEDGPKFL + Zinc [IMMP]
Increase of LR.4 cells (LR.4 cells): 20%
Cells proliferation (control percent, MTT) (LR.4 cells; IMMP (M) −8): 115 ± 5.4 %
Cells proliferation (control percent, MTT) (LR.4 cells; IMMP (M) −9): 118 ± 6.7 %
Cells proliferation (control percent, MTT) (LR.4 cells; IMMP (M) −10): 120 ± 8.5 %
Cells proliferation (control percent, MTT) (LR.4 cells; IMMP (M) −11): 110 ± 10.9 %
Cells proliferation (control percent, MTT) (LR.4 cells; IMMP (M) −12): 104 ± 4.3%
Difference with respect to control (BMK-16myc cells): not observed any difference with respect to control
Cells proliferation (control percent, MTT) (BMK-16myc cells; IMMP (M) −8): 102 ± 2.9%
Cells proliferation (control percent, MTT) (BMK-16myc cells; IMMP (M) −9): 104 ± 3.1%
Cells proliferation (control percent, MTT) (BMK-16myc cells; IMMP (M) −10): 102 ± 3.5%
Cells proliferation (control percent, MTT) (BMK-16myc cells; IMMP (M) −11): 103 ± 2.7%
Cells proliferation (control percent, MTT) (BMK-16myc cells; IMMP (M) −12): 102 ± 3.1%
Cell Viability (% with respect to the control) (THP-1 cells): 180 ± 5%
Serum ALT [1, 2]: 351.0 ± 10.4 UI/L
Serum AST [1, 2]: 493.6 ± 30.3 UI/L
Serum PA (alkaline phosphatase) [1, 2]: 1139.0 ± 86.8 UI/L
Serum ALT [1, 3]: 275.54 ± 22.3 UI/L
Serum AST [1, 3]: 377.0 ± 17.7 UI/L
Serum PA (alkaline phosphatase) [1, 3]: 1287.5 ± 83.6 UI/L
Serum ALT [1, 4]: 233.0 ± 20.8 UI/L
Serum AST [1, 4]: 230.2 ± 15.4 UI/L
Serum PA (alkaline phosphatase) [1, 4]: 1306.2 ± 90.7 UI/L
Hepatic glutathione ([1]; CCI4 + IMMP, 24 hours): 13.3 ± 3.3 ng/mg of tissue
Relative weight of the liver (organ weight / weight of the animal) ([1]; CCI4 + IMMP, 24 hours after CCI4): 8.0 ± 0.9 ^ relative units
Hepatic glutathione ([1]; CCI4 + IMMP, 48 hours): 14.2 ± 2.8 ng/mg of tissue
Relative weight of the liver (organ weight / weight of the animal) ([1]; CCI4 + IMMP, 48 hours after CCI4): 6.8 ± 0.7 relative units
Hepatic glutathione ([1]; CCI4 + IMMP, 72 hours): 3.7 ± 1.6 ng/mg of tissue
Relative weight of the liver (organ weight / weight of the animal) ([1]; CCI4 + IMMP, 72 hours after CCI4): 5.7 ± 0.5 relative units
Relative weight of the liver (organ weight / weight of the animal) ([1]; IMMP alone, no CCI4, 24 hours, 100 ng/kg i.p. x3): 5.4 ± 0.5 relative units
Relative weight of the liver (organ weight / weight of the animal) ([1]; IMMP alone, no CCI4, 48 hours, 100 ng/kg i.p. x3): 5.0 ± 0.4 relative units
Relative weight of the liver (organ weight / weight of the animal) ([1]; IMMP alone, no CCI4, 72 hours, 100 ng/kg i.p. x3): 4.9 ± 0.2 relative units
Hepatic glutathione ([1]; IMMP alone, 24 hours): 3.1 ± 1.0 ng/mg of tissue
Hepatic glutathione ([1]; IMMP alone, 48 hours): 3.5 ± 0.3 ng/mg of tissue
Hepatic glutathione ([1]; IMMP alone, 72 hours): 5.1 ± 0.6 ng/mg of tissue
Serum ALT ([1]; IMMP alone, time 24): 64.0 ± 22.4 UI/L
Serum AST ([1]; IMMP alone, time 24): 72.4 ± 4.1 UI/L
Serum PA (alkaline phosphatase) ([1]; IMMP alone, time 24): 525.0 ± 160 UI/L
Serum ALT ([1]; IMMP alone, time 48): 73.1 ± 6.1 UI/L
Serum AST ([1]; IMMP alone, time 48): 72.5 ± 3.9 UI/L
Serum PA (alkaline phosphatase) ([1]; IMMP alone, time 48): 804.5 ± 39.5 UI/L
Serum ALT ([1]; IMMP alone, time 72): 71.4 ± 8.4 UI/L
Serum AST ([1]; IMMP alone, time 72): 71.6 ± 6.9 UI/L
Serum PA (alkaline phosphatase) ([1]; IMMP alone, time 72): 604.0 ± 26.9 UI/L
Reduction of tumor growth at long term (lymphoma LR.4; 10 doses for two weeks, from the fourth week): about 50%
Body weight (control percent) (lymphoma LR.4; IMMP alone, no tumor, week 0): 100 ± 3%
Body weight (control percent) (lymphoma LR.4; IMMP alone, no tumor, week 8): 101 ± 3%
Body weight (control percent) (lymphoma LR.4; IMMP alone, no tumor, week 12): 99 ± 4%
Body weight (control percent) (lymphoma LR.4; IMMP alone, no tumor, week 16): 101 ± 4%
Body weight (control percent) (lymphoma LR.4; IMMP alone, no tumor, week 20): 102 ± 3%
Body weight (control percent) (lymphoma LR.4; IMMP alone, no tumor, week 24): 100 ± 3%
Body weight (control percent) (lymphoma LR.4; IMMP alone, no tumor, week 28): 100 ± 2%
Body weight (control percent) (lymphoma LR.4; IMMP alone, no tumor, week 32): 100 ± 5%
Body weight (control percent) (lymphoma LR.4; IMMP alone, no tumor, week ±4): 102 ± 4%
Body weight (control percent) (lymphoma LR.4; LR.4 + IMMP, week 0, 200 ng/Kg i.p., ten doses): 100 ± 2%
Body weight (control percent) (lymphoma LR.4; LR.4 + IMMP, week 8): 106 ± 3 %
Body weight (control percent) (lymphoma LR.4; LR.4 + IMMP, week 12): 118 ± 7 %
Body weight (control percent) (lymphoma LR.4; LR.4 + IMMP, week 16): 120 ± 9 %
Body weight (control percent) (lymphoma LR.4; LR.4 + IMMP, week 20): 119 ± 9 %
Body weight (control percent) (lymphoma LR.4; LR.4 + IMMP, week 24): 120 ± 8 %
Body weight (control percent) (lymphoma LR.4; LR.4 + IMMP, week 28): 119 ± 11 %
Body weight (control percent) (lymphoma LR.4; LR.4 + IMMP, week 32): 120 ± 13 %
Body weight (control percent) (lymphoma LR.4; LR.4 + IMMP, week ±4): 115 ± 5 %
Body weight relative to control (lymphoma LR.4; tumor + IMMP, thirty day (untreated 25% higher)): almost equal to that of the control
Platelets (platelets; CC14 + IMMP, pretreatment 50 ng/kg each third day): 886 + 110^# 10^3/μL
Platelets (platelets; IMMP alone, no CCI4, 50 ng/kg each third day): 1560 + 248* 10^3/μL
